Results on one compound are retold here after patent publication US20150289513A1, “USE OF A COMPOUND COMPRISING A POLYFLUOROBENZYL MOIETY AGAINST INSECTICIDE-RESISTANT PESTS” (priority 2012, published 2015).

Experiment [1] concerns Anopheles funestus (metabolic-resistant strain FUMOZ-R). Kind of experiment: Glazed tile contact test, knock-down. The class given is in vivo. How it is done: (§1) To produce a suitable preparation Transfluthrin was dissolved in acetone. The active compound solution was pipetted onto a glazed tile and, after drying, adult mosquitoes of the species: • Anopheles gambiae (target-site-resistant and metabolic-resistant strain: RSPH), • Anopheles gambiae (target-site-resitant and metabolic-resistant strain: Tiassalé), • Anopheles gambiae (tar et-site-resitant and metabolic-resistant strain: Akron), • Anopheles gambiae (target-site-resistant strain: VK7), and • Anopheles funestus (metabolic-resistant strain FUMOZ-R) were placed onto the treated tile (each strain was tested on separate tiles). The exposition time was 30 minutes.
(§2) 0.25 hours, 0.5 hours, 1 hour, 2 hour, 3 hour, 4 hour and 24 hours after contact to the treated surface, the knock-down proportion of the test animals in % was determined. Here, 100% (effect) means that all mosquitoes have been killed; 0% (effect) means that none of the mosquitoes have been killed.
(§3) Similarly as outlined in example 2 for Transfluthrin, Metofluthrin efficacy was assessed against • Anopheles gambiae (target-site-resistant and metabolic-resistant strain: RSPH), • Anopheles funestus (metabolic-resistant strain FUMOZ-R), and • Culex quinquefasciatus (metabolic-resistant to DDT; strain P00), with the results shown in Tables 10 to 12. 0.25 hours, 0.5 hours, 1 hour, 2 hour, 3 hour, 4 hour and 24 hours after contact to the treated surface, the knock-down proportion of the test animals in % is depicted in Tables 10 to 12. 100% (effect) means that all mosquitoes have been killed; 0% (effect) means that none of the mosquitoes have been killed.
(§4) Similarly as outlined in example 2 for Transfluthrin, Metofluthrin efficacy was assessed against • Anopheles gambiae (target-site-resistant and metabolic-resistant strain: RSPH), • Anopheles funestus (metabolic-resistant strain FUMOZ-R), and with the results shown in Tables […]. 0.25 hours, 0.5 hours, 1 hour, 2 hour and 3 hours after contact to the treated surface, the knock-down proportion of the test animals in % is depicted in Tables 13 to 14. 100% (effect) means that all mosquitoes have been killed; 0% (effect) means that none of the mosquitoes have been killed.

For experiment [2], the system named is Anopheles gambiae (target-site-resistant and metabolic-resistant strain: RSPH). Kind of experiment: Glazed tile contact test, knock-down. The class given is in vivo. How it is done:
as §1, §2, §3, §4

In the case of `COCc1c(F)c(F)c(COC(=O)C2C(C=C(C)C#N)C2(C)C)c(F)c1F` (centres unmarked) [Momfluorothrin, 2,3,5,6-Tetrafluoro-4-(methoxymethyl)benzyl 3-(2-cyano-1-propen-1-yl)-2,2-dimethylcyclopropanecarboxylate], the Effect % was found to be 0% in experiment [1] (1.6 g/ha, 0.25 h after contact); 0% in experiment [1] (1.6 g/ha, 0.5 h after contact); 0% in experiment [1] (1.6 g/ha, 1 h after contact); 10% in experiment [1] (1.6 g/ha, 2 h after contact); 20% in experiment [1] (1.6 g/ha, 3 h after contact); 100% in experiment [1] (40 g/ha, 0.25 h after contact). The Effect % in experiment [1] (40 g/ha, 0.5 h after contact) is 100%; in experiment [1] (40 g/ha, 1 h after contact) it was 100%; in experiment [1] (40 g/ha, 2 h after contact), 90%; in experiment [1] (40 g/ha, 3 h after contact), 100%; in experiment [2] (1.6 g/ha, 0.25 h after contact), 10%; in experiment [2] (1.6 g/ha, 0.5 h after contact), 7%. For the same compound, the Effect % was 35% in experiment [2] (1.6 g/ha, 1 h after contact); 14% in experiment [2] (1.6 g/ha, 2 h after contact); 14% in experiment [2] (1.6 g/ha, 3 h after contact); 100% in experiment [2] (40 g/ha, 0.25 h after contact); 100% in experiment [2] (40 g/ha, 0.5 h after contact); 100% in experiment [2] (40 g/ha, 1 h after contact). Besides, the Effect % in experiment [2] (40 g/ha, 2 h after contact) is reported as 100%; in experiment [2] (40 g/ha, 3 h after contact), 100%.
